Assay results taken from patent US5594024A, “Centrally actig substituted phenylazacycloalkanes” (priority 1995, dated 1997).
Where two headings read alike, the source gives them in different places.

Legend:
[1] = tested on: DA receptor; assay: DA metabolism (DOPAC, HVA levels) in habituated rats; format: in vivo, rat (male Sprague-Dawley); settings: for response vs control in vivo at 100 µmol/kg: Rattus norvegicus, 1 h
Protocol: (§1) Footnotes Table 3. The rats were habituated to the motility meters 60 min
The rats were immediately killed after the activity session, striata
and limbic levels of DOPAC and 5HIAA were measured by means of HPLCEC. *p
In the experiments with habituated rats no NSD was administered and the animals were killed one hour after drug administration. […] The levels were expressed as % of controls (DOPAC and 5-HIAA see Table 3). The in vivo brain microdialysis experiments were performed in conscious rats as described by Waters et al., Eur. J. Pharm., 187, 425-34 (1990).
(§2) Injection volumes were 5 mL/kg.
After the activity session the rats were killed and the brain levels of HVA and DOPAC were measured (data are expressed as means ±SEM).

[2] = biological target: T1, 5-HT1A (Rattus norvegicus, UniProt P19327); assay: 5-HT1A radioligand binding ([3H]-8-OH-DPAT); parameters: species or system rat (male Sprague-Dawley)
T1 construct: the whole brain with the exception of the brainstem and cerebellum was rapidly removed; from tissue
T1 sequence (P19327 1-422): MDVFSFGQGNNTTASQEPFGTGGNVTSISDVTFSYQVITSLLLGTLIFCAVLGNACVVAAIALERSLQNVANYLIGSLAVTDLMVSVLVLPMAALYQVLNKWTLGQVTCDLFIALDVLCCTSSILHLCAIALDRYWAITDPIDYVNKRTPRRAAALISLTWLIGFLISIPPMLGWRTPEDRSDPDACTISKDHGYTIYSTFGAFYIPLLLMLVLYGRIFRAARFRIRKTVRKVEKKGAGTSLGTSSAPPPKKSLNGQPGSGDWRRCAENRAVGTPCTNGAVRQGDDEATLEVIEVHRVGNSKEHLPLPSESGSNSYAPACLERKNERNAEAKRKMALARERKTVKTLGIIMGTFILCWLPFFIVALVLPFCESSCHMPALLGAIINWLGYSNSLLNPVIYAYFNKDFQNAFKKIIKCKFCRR
Protocol: ^b Serotonin 5HT1A ([^3 H]-8OH-DPAT, agonist) rat cortex.
5-HT1A radioligand binding. Male Sprague-Dawley rats (160-225 g) were killed by decapitation and the whole brain with the exception of the brainstem and cerebellum was rapidly removed, weighed and chilled in ice-cold 0.9% NaCl. Each brain was homogenized (Ultra-Turrax, 20 s) in 10 mL ice-cold 50 mM Tris buffer (pH 8.0 at 25° C.) containing 120 mM NaCl, 4 mM CaCl2 and 4 mM MgCl2 and centrifuged at 20,000 g's at 4° C. for 10 minutes. Pellets were resuspended in 10 mL fresh buffer and preincubated for 10 minutes in a 37° C. waterbath and then recentrifuged. Final pellets were homogenized in 100 volumes (w/v) of Tris buffer (as described above) containing 10 μM pargyline. The incubation tubes were kept on ice in triplicates and received 100 μL drug solution in water (or water for total binding) and 1000 μL membrane suspension (corresponds to 10 mg original tissue). The binding experiment was initiated by addition of 100 μL of (3H)-8-OH-DPAT (specific activity 143-158 Ci/mmol) in ascorbic acid (the final incubation concentration was 1 nM (3H)-8-OH-DPAT in 0.1% ascorbic acid). After incubation for 15 minutes at 37° C. the reaction was terminated by separation of the free radioligand from bound by rapid vacuum filtration using a cell harvester equipment (O. M. Teknik, Denmark). The tubes were rinsed with 4 mL and the filters (Whatman GF/F 25 mm) were washed twice with 4 mL ice-cold 0.9% NaCl.
The radioactivity of the filters was measured in a liquid scintillation counter (efficiency 41%) in 5 mL Picofluor®. Specific binding (70-75% of total binding) was defined as the radioactivity displaced by 10 μM 5-HT. IC50 values were calculated by semi-log plot and linear regression analysis.

[3] = tested on: habituated rats; assay: Locomotor activity and behavior in habituated rats; format: in vivo, rat (male Sprague-Dawley); settings: 100 μmol/kg sc, habituated rats; for response vs control in vivo at 100 µmol/kg: Rattus norvegicus, 1 h, read-out: Motor Activity
Protocol: as §1
prior to the activity session.
as §2
Locomotor activity was measured in rats which were habituated 60 minutes to the activity meters before drug injection. The activity was measured for the subsequent 60 minutes and expressed as % of controls (means ±SEM, n=4).

[4] = biological target: T2, D2 receptors (Rattus norvegicus, UniProt P61169); assay: D2 antagonist binding ([3H]-spiperone), rat striatum
T2 construct: Preparation of rat striatal membranes for (3H)-spiperone; from tissue; host or cells: rat striatum (striatal membranes)
Protocol: D2 antagonist binding. Preparation of rat striatal membranes for (3H)-spiperone (specific activity 21-24 Ci/mmol) binding was carried out in a similar manner as described for D1-binding, Hyttel et al., J. Neural. Transm., 68, 171 (1987).
IC50 values were calculated by semi-log plot and linear regression analysis.

[5] = tested on: 5-HT receptor; assay: 5-HTP accumulation (5-HT synthesis rate) in non-pretreated rats after NSD 1015; format: in vivo, rat (male Sprague-Dawley)
Protocol: observations are commented to the right. After the session the rats were
accumulation in the NErich cortical regions and 5HTP in the limbic
as §2

[6] = tested on: DA receptor; assay: DOPA accumulation (DA synthesis rate) in non-pretreated rats after NSD 1015
Protocol: injected with NSD 1015 (100 mg/kg, i.p.) and then killed 30 min later.
In-vivo determination of rat brain monoamine metabolites and tyrosine and tryptophan hydroxylation (biochemically monitored DA and 5-HT receptor agonist or antagonist activity).
The compounds under evaluation were tested biochemically for central DA and 5-HT receptor (pre- and/or postsynaptic) stimulating and/or blocking activity. The concept of this biochemical screening method is that a DA or 5-HT receptor agonist will stimulate the receptor and through regulatory negative feed-back systems induce a decline in tyrosine or tryptophan hydroxylating activity, respectively, and a subsequent reduction in the synthesis rate of DA and 5-HT in the presynaptic neuron. […] The biochemical experiments and the determinations of Dopa and 5-HTP by means of HPLC with electrochemical detection were performed. The antagonistic effects were seen as increases in the synthesis rate (n=4), as a result of the positive feed-back upregulation of synthesis. The effects on Dopa and 5-HTP accumulation are expressed as % of controls, which were: DOPA limbic system=447±23 ng/g and DOPA striatum=1045±47ng/g, 5-HTP limbic region 241±2 ng/g (Table 2).
(§3) Animals used in the biochemical and motor activity experiments were male rats of the Sprague-Dawley strain (ALAB, Sollentuna, Sweden), weighing 200-300 g. The rats were kept 5 per cage with free access to water and food (except for the starved animals for the experiments with per oral administration, who were only allowed water the last 18 hours before testing), at least one week from arrival until used in the experiments.
(§4) All substances to be tested were dissolved in saline immediately before use, occasionally with the addition of a few drops of glacial acetic acid and/or moderate heating in order to obtain complete dissolution. Injection volumes were 5 mL/kg.
Analysis of variance (ANOVA) followed by Fischer's test was used for the statistical calculations. P values less than 0.05 were regarded statistically significant.
DOPA accumulation (DA synthesis rate) in non-pretreated rats (Table 2). After the locomotor activity session (see Table 2, above) the rats were injected with the decarboxylase inhibitor NSD 1015 (100 mg/kg, sc) and killed 30 minutes later. The DOPA accumulation in the DA -rich limbic and striatal and the NE-rich cortical (mainly hemispheres) brain areas were expressed as % of saline treated controls.
DOPA accumulation, time course after s.c. and p.o. administration (Table 2). […] NSD 1015 (100 mg/kg, sc) was injected 30 minutes before death. The data are expressed as % of saline treated controls.

[7] = tested on: non-pretreated rats; assay: Locomotor activity and gross behavior in non-habituated (non-pretreated) rats; settings: non-pretreated rats; for Motor Act.: 30 min
Text: Immediately after drug administration, the rats were placed in the test cages (one rat/cage) and put into the motility meters. […] Observations of gross behavior were made throughout the activity sessions through semi-transparent mirrors.
as §3, §4
Analysis of variance (ANOVA) followed by Fischer's test was used for the statistical calculations.
In vivo behavioral data was obtained with rats injected with drug and 5 minutes later put into the motility chambers for the first time. The motor activity was measured for the subsequent 30 minutes (accumulated counts/30 minutes) and expressed as % of saline treated controls.

[8] = [3H]-8-OH-DPAT, rat cortex, read-out: in vitro binding IC50, 5HT1A
[9] = [3H]-spiperone, rat striatum, read-out: in vitro binding IC50, D2 -spip
[10] = 100 μmol/kg sc, habituated rats
[11] = read-out: in vitro binding IC50, D2 -spip, [3H]-spiperone, rat striatum
[12] = 100 μmol/kg sc, habituated rats, read-out: DOPAC limbic
[13] = 100 μmol/kg sc, habituated rats, read-out: DOPAC striatum

T2 sequence (P61169 whole entry): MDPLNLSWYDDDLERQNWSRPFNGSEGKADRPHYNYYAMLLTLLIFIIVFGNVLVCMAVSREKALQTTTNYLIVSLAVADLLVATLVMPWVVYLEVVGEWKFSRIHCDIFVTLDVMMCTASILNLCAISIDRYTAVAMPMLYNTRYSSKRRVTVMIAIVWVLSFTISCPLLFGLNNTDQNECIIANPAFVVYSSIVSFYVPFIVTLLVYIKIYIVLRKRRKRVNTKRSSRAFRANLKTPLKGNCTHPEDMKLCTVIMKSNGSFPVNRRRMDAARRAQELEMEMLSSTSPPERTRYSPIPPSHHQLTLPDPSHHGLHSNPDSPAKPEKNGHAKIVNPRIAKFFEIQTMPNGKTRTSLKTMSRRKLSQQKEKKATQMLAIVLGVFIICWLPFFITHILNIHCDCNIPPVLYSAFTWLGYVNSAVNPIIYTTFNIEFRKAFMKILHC

CCCN1CCCC(c2cccc(C#N)c2)C1 (racemic) [(+)-S-34]
response vs control in vivo at 100 µmol/kg ([1]; sc, read-out: DOPAC limbic): 207 ± 6%
response vs control in vivo at 100 µmol/kg ([1]; sc, read-out: DOPAC striatum): 291 ± 16%

CCCN1CCCC(c2ccccc2OS(=O)(=O)C(F)(F)F)C1 (racemic) [Racemic-19, 3-((2-(Trifluoromethyl)sulfonyl)oxyphenyl-N-n-propyl)piperidine]
IC50 [2, 8]: 1.4 µM
Behavioral observations [3]: No activation
response vs control in vivo at 100 µmol/kg ([3]; 60 min): 101 ± 14%

CCCN1CCCC(c2ccc(OS(=O)(=O)C(F)(F)F)cc2)C1 (racemic) [Racemic-20, 3-((4-(Trifluoromethyl)sulfonyl)oxyphenyl-N-n-propyl)piperidine]
IC50 [4, 9]: 71 µM
IC50 [2, 8]: 14 µM

CCCN1CCC(c2cccc(OS(=O)(=O)C(F)(F)F)c2)C1 (racemic) [Racemic-21, 3-((3-(Trifluoromethyl)sulfonyl)oxyphenyl-N-n-propyl)pyrrolidine]
IC50 [4, 9]: 4 µM
IC50 [2, 8]: 3.2 µM
Behavioral observations [3]: No activation
response vs control in vivo at 100 µmol/kg ([3]; 60 min): 93 ± 18%

C=Cc1cccc([C@@H]2CCCN(CCC)C2)c1 [(-)-R-41]
5-HTP acc Limbic Region ([5]; 100 sc): 65 ± 2 % of saline controls
DOPA acc Cortex ([6]; 100 sc): 121 ± 29 % of saline controls
DOPA acc Stratium ([6]; 100 sc): 171 ± 15 % of saline controls
Gross Behavioral Observations ([7]; 100 sc): No change
Motor Act. ([7]; 100 sc): 125 ± 13 % of saline controls

O=S(=O)(Oc1cccc([C@@H]2CCCN(CCc3ccccc3)C2)c1)C(F)(F)F [Compound S-18]
IC50 [4]: 0.24 µM
IC50 [2, 8]: 0.23 µM

CCCN1CCC[C@@H](c2cccc(C(=O)OC)c2)C1 [Compound S-25, S-3-(3-(Methoxycarbonyl)phenyl-N-n-propyl)piperidine]
IC50 [4, 9]: 16 µM
IC50 [2, 8]: 2 µM

N#Cc1cccc([C@@H]2CCCNC2)c1 [Compound S-31, S-3-(3-Cyanophenyl)piperidine]
IC50 [4, 9]: 16 µM
IC50 [2]: 10 µM
DOPAC limbic [1, 10]: 153 ± 1%
DOPAC striatum [1, 10]: 167 ± 8 % of saline treated controls
Behavioral observations [3]: Activation
Motor Activity ([3]; 60 min): 431 ± 80 % of saline treated controls

CC(C)N1CCC[C@@H](c2cccc(C#N)c2)C1 [Compound S-35, S-3-(3-Cyanophenyl-N-iso-propyl)piperidine]
IC50 [4, 11]: 4.3 µM
IC50 [2, 8]: 16 µM
response vs control in vivo at 100 µmol/kg ([1]; sc, read-out: DOPAC striatum): 251 ± 18%
Behavioral observations [3]: Activation

CCCCN1CCC[C@@H](c2cccc(C#N)c2)C1 [Compound S-36, S-3-(3-Cyanophenyl-N-n-butyl)piperidine]
IC50 [4, 11]: 3.7 µM
IC50 [2, 8]: 5.6 µM

C=CCN1CCC[C@@H](c2cccc(C#N)c2)C1 [Compound S-37, S-3-(3-Cyanophenyl-N-allyl)piperidine]
IC50 [4, 11]: 8.2 µM
IC50 [2, 8]: 12 µM
response vs control in vivo at 100 µmol/kg ([1]; sc, read-out: DOPAC limbic): 205 ± 17%

N#Cc1cccc([C@@H]2CCCN(CC3CC3)C2)c1 [Compound S-38, S-3-(3-Cyanophenyl-N-cyclopropylmethyl)piperidine]
IC50 [2, 8]: 7.9 µM
response vs control in vivo at 100 µmol/kg ([1]; sc, read-out: DOPAC limbic): 221 ± 8%

N#Cc1cccc([C@@H]2CCCN(CCc3ccccc3)C2)c1 [Compound S-39, S-3-((3-Cyanophenyl)-N-(2-phenylethyl))piperidine]
IC50 [4, 9]: 0.63 µM
IC50 [2, 8]: 0.15 µM
response vs control in vivo at 100 µmol/kg [1, 12]: 169 ± 16%
response vs control in vivo at 100 µmol/kg [1, 13]: 231 ± 14%
Behavioral observations [3]: Activation
response vs control in vivo at 100 µmol/kg ([3]; 60 min): 511 ± 69%

N#Cc1cccc([C@@H]2CCCN(CCc3cccs3)C2)c1 [Compound S-40, S-3-((3-Cyanophenyl)-N-(2-thiopheneethyl))piperidine]
IC50 [4, 9]: 0.89 µM
IC50 [2, 8]: 0.4 µM
response vs control in vivo at 100 µmol/kg [1, 12]: 149 ± 17%
response vs control in vivo at 100 µmol/kg [1, 13]: 201 ± 4%
Behavioral observations [3]: Activation
response vs control in vivo at 100 µmol/kg ([3]; 60 min): 500 ± 92%

CN1CCC[C@@H](c2cccc(C#N)c2)C1 [S-(+)-32, S-(+)-3-(3-Cyanophenyl-N-methyl)piperidine]
IC50 [4, 9]: 50 µM
IC50 [2, 8]: 14 µM
5-HTP acc Limbic Region ([5]; 25 sc): 98 ± 7 % of saline controls
5-HTP acc Limbic Region ([5]; 100 sc): 78 ± 2 % of saline controls
response vs control in vivo at 100 µmol/kg ([1]; sc, read-out: DOPAC limbic): 110 ± 6%
response vs control in vivo at 100 µmol/kg ([1]; sc, read-out: DOPAC striatum): 120 ± 5%
DOPA acc Cortex ([6]; 25 sc): 91 ± 5 % of saline controls
DOPA acc Stratium ([6]; 25 sc): 132 ± 9 % of saline controls
DOPA acc Cortex ([6]; 100 sc): 109 ± 12 % of saline controls
DOPA acc Stratium ([6]; 100 sc): 215 ± 6 % of saline controls
Gross Behavioral Observations ([7]; 25 sc): No change
Motor Act. ([7]; 25 sc): 128 ± 27 % of saline controls
Motor Act. ([7]; 100 sc): 79 ± 2 % of saline controls

CCCN1CCC[C@@H](c2cccc(C(N)=O)c2)C1 [S-(-)-29, S-(-)-3-(3-Carbamoylphenyl-N-n-propyl)piperidine]
IC50 [4, 9]: 75 µM
IC50 [2, 8]: 6.3 µM

CCN1CCC[C@@H](c2cccc(C#N)c2)C1 [S-(-)-33, S-(-)-3-(3-Cyanophenyl-N-ethyl)piperidine]
IC50 [4]: 14 µM
IC50 [2, 8]: 22 µM
5-HTP acc Limbic Region ([5]; 25 sc): 83 ± 3 % of saline controls
5-HTP acc Limbic Region ([5]; 100 sc): 77 ± 3 % of saline controls
response vs control in vivo at 100 µmol/kg ([1]; sc, read-out: DOPAC limbic): 153 ± 15%
response vs control in vivo at 100 µmol/kg ([1]; sc, read-out: DOPAC striatum): 167 ± 8%
Behavioral observations [3]: Activation
response vs control in vivo at 100 µmol/kg ([3]; 60 min): 431 ± 80%
DOPA acc Cortex ([6]; 25 sc): 108 ± 7 % of saline controls
DOPA acc Stratium ([6]; 25 sc): 282 ± 11 % of saline controls
DOPA acc Cortex ([6]; 100 sc): 137 ± 7 % of saline controls
DOPA acc Stratium ([6]; 100 sc): 318 ± 19 % of saline controls
Gross Behavioral Observations ([7]; 25 sc): Weak stimul.
Motor Act. ([7]; 25 sc): 157 ± 7 % of saline controls
Gross Behavioral Observations ([7]; 100 sc): No change
Motor Act. ([7]; 100 sc): 113 ± 7 % of saline controls

CCCN1CCC[C@@H](c2cccc(OC)c2)C1 [S-i, S-3-(3-Methoxyphenyl-N-n-propyl)piperidine]
IC50 [4, 9]: 21 µM
IC50 [2, 8]: 4.5 µM
